# Measurements: PubChem BioAssay (NCI)
#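 Test compounds were applied to cells in 96-well plates for 48 hours at 5 doses. The concentration for full growth arrest is given as TGI.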
# Assays:
# Experiment in all cases: NCI-60 cell line screen, 48 h
# A498 renal = test system: A498 renal
# BT-549 breast = test system: BT-549 breast
# CAKI-1 renal = test system: CAKI-1 renal
# CCRF-CEM leukemia = test system: CCRF-CEM leukemia
# COLO 205 colon = test system: COLO 205 colon
# HOP-62 NSCLC = test system: HOP-62 NSCLC
# HS 578T breast = test system: HS 578T breast
# KM12 colon = test system: KM12 colon
# MCF7 breast = test system: MCF7 breast
# MDA-MB-435 = test system: MDA-MB-435
# NCI-H226 lung = test system: NCI-H226 lung
# OVCAR-4 ovarian = test system: OVCAR-4 ovarian
# SF-268 CNS = test system: SF-268 CNS
# SK-OV-3 ovarian = test system: SK-OV-3 ovarian
# SNB-19 CNS = test system: SNB-19 CNS
# SNB-75 CNS = test system: SNB-75 CNS
# OVCAR-8 ovarian = test system: OVCAR-8 ovarian
# KM20L2 colon = test system: KM20L2 colon
# LXFL 529 NSCLC = test system: LXFL 529 NSCLC
structure (smiles),measurement,setting,value
CC1(C)CCCOc2cccc(c2)OCCCC(C)(C)C1=O,TGI,A498 renal,> 100 µM
same,TGI,BT-549 breast,89.3 µM
same,TGI,CAKI-1 renal,> 100 µM
same,TGI,CCRF-CEM leukemia,44.2 µM
same,TGI,COLO 205 colon,> 100 µM
same,TGI,HOP-62 NSCLC,> 100 µM
same,TGI,HS 578T breast,> 100 µM
same,TGI,KM12 colon,> 100 µM
same,TGI,MCF7 breast,> 100 µM
same,TGI,MDA-MB-435,> 100 µM
same,TGI,NCI-H226 lung,82.9 µM
same,TGI,OVCAR-4 ovarian,> 100 µM
same,TGI,SF-268 CNS,> 100 µM
same,TGI,SK-OV-3 ovarian,> 100 µM
same,TGI,SNB-19 CNS,> 100 µM
same,TGI,SNB-75 CNS,> 100 µM
CCOC(=O)CCC(NC(=O)c1ccc(Nc2cnc3ccc(C(F)(F)F)cc3n2)cc1)C(=O)OCC (stereo not drawn),TGI,A498 renal,> 79 µM
same,TGI,BT-549 breast,97.1 µM
same,TGI,CAKI-1 renal,> 65.1 µM
same,TGI,CCRF-CEM leukemia,> 100 µM
same,TGI,COLO 205 colon,> 100 µM
same,TGI,HOP-62 NSCLC,> 100 µM
same,TGI,HS 578T breast,> 65.9 µM
same,TGI,KM12 colon,> 85.3 µM
same,TGI,MCF7 breast,> 100 µM
same,TGI,MDA-MB-435,> 100 µM
same,TGI,NCI-H226 lung,> 100 µM
same,TGI,OVCAR-4 ovarian,> 74.3 µM
same,TGI,OVCAR-8 ovarian,33.8 µM
same,TGI,SF-268 CNS,> 100 µM
same,TGI,SK-OV-3 ovarian,> 60.5 µM
same,TGI,SNB-19 CNS,> 63.7 µM
same,TGI,SNB-75 CNS,29.9 µM
Cn1c2ccccc2n2c3ccccc3c(=O)c(C#N)c12,TGI,A498 renal,> 75.8 µM
same,TGI,BT-549 breast,> 100 µM
same,TGI,CAKI-1 renal,35.2 µM
same,TGI,CCRF-CEM leukemia,> 100 µM
same,TGI,COLO 205 colon,> 100 µM
same,TGI,HOP-62 NSCLC,> 100 µM
same,TGI,HS 578T breast,66.7 µM
same,TGI,KM12 colon,> 100 µM
same,TGI,MCF7 breast,> 100 µM
same,TGI,MDA-MB-435,> 100 µM
same,TGI,NCI-H226 lung,34.1 µM
same,TGI,OVCAR-4 ovarian,> 100 µM
same,TGI,OVCAR-8 ovarian,> 44.5 µM
same,TGI,SF-268 CNS,> 100 µM
same,TGI,SK-OV-3 ovarian,> 100 µM
same,TGI,SNB-19 CNS,> 100 µM
same,TGI,SNB-75 CNS,> 96.6 µM
Cn1nc2ccc3nccc(N(CCO)CCO)c3c2n1,TGI,A498 renal,> 100 µM
same,TGI,CAKI-1 renal,> 100 µM
same,TGI,CCRF-CEM leukemia,> 100 µM
same,TGI,COLO 205 colon,> 100 µM
same,TGI,HOP-62 NSCLC,> 100 µM
same,TGI,KM12 colon,> 100 µM
same,TGI,KM20L2 colon,> 100 µM
same,TGI,LXFL 529 NSCLC,> 100 µM
same,TGI,NCI-H226 lung,> 100 µM
same,TGI,OVCAR-8 ovarian,> 100 µM
same,TGI,SF-268 CNS,> 100 µM
same,TGI,SK-OV-3 ovarian,> 100 µM
same,TGI,SNB-19 CNS,> 100 µM
same,TGI,SNB-75 CNS,> 100 µM
C#C[C@]1(O)CC[C@H]2[C@@H]3CCC4=C/C(=N\OCCN(CC)CC)CC[C@]4(C)[C@H]3CC[C@@]21C,TGI,A498 renal,28.9 µM
same,TGI,BT-549 breast,31.5 µM
same,TGI,CAKI-1 renal,39.7 µM
same,TGI,CCRF-CEM leukemia,44.9 µM
same,TGI,COLO 205 colon,11.5 µM
same,TGI,HOP-62 NSCLC,16 µM
same,TGI,HS 578T breast,7.51 µM
same,TGI,KM12 colon,11.4 µM
same,TGI,MCF7 breast,21.3 µM
same,TGI,MDA-MB-435,15.2 µM
same,TGI,NCI-H226 lung,29.8 µM
same,TGI,OVCAR-4 ovarian,50.4 µM
same,TGI,OVCAR-8 ovarian,24.6 µM
same,TGI,SF-268 CNS,10.8 µM
same,TGI,SK-OV-3 ovarian,34.4 µM
same,TGI,SNB-19 CNS,18.5 µM
same,TGI,SNB-75 CNS,10.9 µM
S=C1N=C(Cl)/C(=C\c2ccco2)N1,TGI,A498 renal,> 100 µM
same,TGI,BT-549 breast,> 100 µM
same,TGI,CAKI-1 renal,> 100 µM
same,TGI,CCRF-CEM leukemia,> 100 µM
same,TGI,COLO 205 colon,> 100 µM
same,TGI,HOP-62 NSCLC,> 100 µM
same,TGI,HS 578T breast,> 100 µM
same,TGI,KM12 colon,> 100 µM
same,TGI,MCF7 breast,> 100 µM
same,TGI,MDA-MB-435,> 100 µM
same,TGI,NCI-H226 lung,> 100 µM
same,TGI,OVCAR-4 ovarian,> 100 µM
same,TGI,OVCAR-8 ovarian,> 100 µM
same,TGI,SF-268 CNS,> 100 µM
same,TGI,SK-OV-3 ovarian,> 100 µM
same,TGI,SNB-19 CNS,> 100 µM
same,TGI,SNB-75 CNS,> 100 µM
Cc1sc(N)c(S(=O)(=O)c2ccccc2)c1C,TGI,A498 renal,> 100 µM
same,TGI,BT-549 breast,> 100 µM
same,TGI,CAKI-1 renal,> 100 µM
same,TGI,CCRF-CEM leukemia,> 100 µM
same,TGI,COLO 205 colon,> 100 µM
same,TGI,HS 578T breast,> 100 µM
same,TGI,KM12 colon,> 100 µM
same,TGI,MCF7 breast,> 100 µM
same,TGI,MDA-MB-435,> 100 µM
same,TGI,NCI-H226 lung,> 100 µM
same,TGI,OVCAR-4 ovarian,> 100 µM
same,TGI,OVCAR-8 ovarian,> 100 µM
same,TGI,SF-268 CNS,> 100 µM
same,TGI,SK-OV-3 ovarian,> 100 µM
same,TGI,SNB-19 CNS,> 100 µM
same,TGI,SNB-75 CNS,> 100 µM
COc1ccc(CCNC(=O)CCc2ccccc2CO)cc1OC,TGI,A498 renal,> 100 µM
same,TGI,BT-549 breast,> 100 µM
same,TGI,CAKI-1 renal,> 100 µM
same,TGI,CCRF-CEM leukemia,> 100 µM
same,TGI,COLO 205 colon,> 100 µM
same,TGI,HOP-62 NSCLC,> 100 µM
same,TGI,HS 578T breast,> 100 µM
same,TGI,KM12 colon,> 100 µM
same,TGI,MCF7 breast,> 100 µM
same,TGI,MDA-MB-435,> 100 µM
same,TGI,NCI-H226 lung,> 100 µM
same,TGI,OVCAR-4 ovarian,> 100 µM
same,TGI,OVCAR-8 ovarian,> 100 µM
same,TGI,SF-268 CNS,> 100 µM
same,TGI,SK-OV-3 ovarian,> 100 µM
same,TGI,SNB-19 CNS,> 100 µM
same,TGI,SNB-75 CNS,> 100 µM
O=C(O)c1cc(O)c2c(c1)C([C@@H]1c3cccc(O)c3C(=O)c3c(O)cc(C(=O)O)cc31)c1cccc(O)c1C2=O (stereo partly drawn),TGI,A498 renal,69.3 µM
same,TGI,BT-549 breast,> 100 µM
same,TGI,CAKI-1 renal,> 100 µM
same,TGI,CCRF-CEM leukemia,> 100 µM
same,TGI,COLO 205 colon,> 100 µM
same,TGI,HS 578T breast,69.4 µM
same,TGI,KM12 colon,44.3 µM
same,TGI,MCF7 breast,91.8 µM
same,TGI,MDA-MB-435,49 µM
same,TGI,NCI-H226 lung,> 100 µM
same,TGI,OVCAR-4 ovarian,> 100 µM
same,TGI,OVCAR-8 ovarian,> 100 µM
same,TGI,SF-268 CNS,96.9 µM
same,TGI,SK-OV-3 ovarian,> 100 µM
same,TGI,SNB-19 CNS,> 100 µM
same,TGI,SNB-75 CNS,62.6 µM
CCOC(=O)/C(C[C@H]1OC(C)(C)O[C@@H]1[C@H]1COC(C)(C)O1)=N/O,TGI,A498 renal,> 100 µM
same,TGI,BT-549 breast,> 100 µM
same,TGI,CAKI-1 renal,> 100 µM
same,TGI,CCRF-CEM leukemia,> 100 µM
same,TGI,COLO 205 colon,> 100 µM
same,TGI,HOP-62 NSCLC,> 100 µM
same,TGI,HS 578T breast,> 100 µM
same,TGI,KM12 colon,> 100 µM
same,TGI,MCF7 breast,> 100 µM
same,TGI,MDA-MB-435,> 100 µM
same,TGI,NCI-H226 lung,> 100 µM
same,TGI,OVCAR-4 ovarian,> 100 µM
same,TGI,OVCAR-8 ovarian,> 100 µM
same,TGI,SF-268 CNS,> 100 µM
same,TGI,SK-OV-3 ovarian,> 100 µM
same,TGI,SNB-19 CNS,> 100 µM
Cc1nc2c(n1CCN(C)C)C(=O)c1ccccc1C2=O,TGI,CCRF-CEM leukemia,47.1 µM
same,TGI,COLO 205 colon,16.5 µM
same,TGI,HOP-62 NSCLC,78.7 µM
same,TGI,KM12 colon,40.9 µM
same,TGI,KM20L2 colon,25.8 µM
same,TGI,LXFL 529 NSCLC,37.3 µM
same,TGI,NCI-H226 lung,> 100 µM
same,TGI,OVCAR-4 ovarian,29.3 µM
same,TGI,OVCAR-8 ovarian,43.1 µM
same,TGI,SF-268 CNS,72 µM
same,TGI,SK-OV-3 ovarian,> 100 µM
same,TGI,SNB-19 CNS,76.2 µM
same,TGI,SNB-75 CNS,> 100 µM
CCc1cccc(CC)c1NC(=O)C1=C(C)NC(C)=C(C(=O)Nc2c(CC)cccc2CC)C1c1ccc2c(c1)OCO2,TGI,A498 renal,38.9 µM
same,TGI,CAKI-1 renal,52 µM
same,TGI,CCRF-CEM leukemia,20.3 µM
same,TGI,COLO 205 colon,26.2 µM
same,TGI,HOP-62 NSCLC,37.2 µM
same,TGI,KM12 colon,36.5 µM
same,TGI,KM20L2 colon,30.5 µM
same,TGI,LXFL 529 NSCLC,29.3 µM
same,TGI,NCI-H226 lung,28.6 µM
same,TGI,OVCAR-4 ovarian,42.9 µM
same,TGI,OVCAR-8 ovarian,34.7 µM
same,TGI,SF-268 CNS,35.9 µM
same,TGI,SK-OV-3 ovarian,60.6 µM
same,TGI,SNB-19 CNS,33 µM
same,TGI,SNB-75 CNS,38.1 µM
CNC(=O)CNC(=O)C(Cc1ccc(NC(=O)CCCCC(C)=O)cc1)NC(=O)C(CCC(=O)OCc1ccccc1)NC(=O)OC(C)(C)C (stereo not drawn),TGI,A498 renal,> 100 µM
same,TGI,BT-549 breast,> 100 µM
same,TGI,CAKI-1 renal,> 100 µM
same,TGI,COLO 205 colon,> 100 µM
same,TGI,HOP-62 NSCLC,> 100 µM
same,TGI,HS 578T breast,> 100 µM
same,TGI,KM12 colon,> 100 µM
same,TGI,MCF7 breast,> 100 µM
same,TGI,MDA-MB-435,> 100 µM
same,TGI,NCI-H226 lung,> 100 µM
same,TGI,OVCAR-4 ovarian,> 100 µM
same,TGI,OVCAR-8 ovarian,> 100 µM
same,TGI,SF-268 CNS,> 100 µM
same,TGI,SK-OV-3 ovarian,> 100 µM
same,TGI,SNB-19 CNS,> 100 µM
same,TGI,SNB-75 CNS,> 100 µM
CCNc1nc2c(ncn2C2CC(O)C(COP(=O)(O)O)O2)c(=O)[nH]1 (stereo not drawn),TGI,A498 renal,> 100 µM
same,TGI,BT-549 breast,> 100 µM
same,TGI,CAKI-1 renal,> 100 µM
same,TGI,COLO 205 colon,> 100 µM
same,TGI,HOP-62 NSCLC,> 100 µM
same,TGI,HS 578T breast,> 100 µM
same,TGI,KM12 colon,> 100 µM
same,TGI,MCF7 breast,> 100 µM
same,TGI,MDA-MB-435,> 100 µM
same,TGI,NCI-H226 lung,> 100 µM
same,TGI,OVCAR-4 ovarian,> 100 µM
same,TGI,OVCAR-8 ovarian,> 100 µM
same,TGI,SF-268 CNS,> 100 µM
same,TGI,SK-OV-3 ovarian,> 100 µM
same,TGI,SNB-19 CNS,> 100 µM
same,TGI,SNB-75 CNS,> 100 µM
